From PubChem BioAssay (NCI)
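48-hour exposure; five concentrations; linearly interpolated endpoints. GI50 marks 50% less growth. Definition used: TGI = concentration required for complete inhibition of growth.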

Columns and labels:
Assay in all cases: DTP human tumour cell line panel, 48 h
786-0 renal = test system: 786-0 renal
A498 renal = test system: A498 renal
A549 NSCLC = test system: A549 NSCLC
ACHN renal = test system: ACHN renal
BT-549 breast = test system: BT-549 breast
CAKI-1 renal = test system: CAKI-1 renal
COLO 205 colon = test system: COLO 205 colon
DU-145 prostate = test system: DU-145 prostate
EKVX NSCLC = test system: EKVX NSCLC
HCC-2998 colon = test system: HCC-2998 colon
HCT-116 colon = test system: HCT-116 colon
HCT-15 colon = test system: HCT-15 colon
HL-60(TB) leukemia = test system: HL-60(TB) leukemia
HOP-62 NSCLC = test system: HOP-62 NSCLC
HOP-92 NSCLC = test system: HOP-92 NSCLC
HS 578T breast = test system: HS 578T breast
HT29 colon = test system: HT29 colon
IGROV1 ovarian = test system: IGROV1 ovarian
K-562 leukemia = test system: K-562 leukemia
KM12 colon = test system: KM12 colon
LOX IMVI melanoma = test system: LOX IMVI melanoma
M14 melanoma = test system: M14 melanoma
MALME-3M melanoma = test system: MALME-3M melanoma
MDA-MB-231 breast = test system: MDA-MB-231 breast
MDA-MB-435 = test system: MDA-MB-435
MOLT-4 leukemia = test system: MOLT-4 leukemia
NCI-H226 lung = test system: NCI-H226 lung
NCI-H23 lung = test system: NCI-H23 lung
NCI-H460 lung = test system: NCI-H460 lung
NCI-H522 lung = test system: NCI-H522 lung
NCI/ADR-RES ovarian = test system: NCI/ADR-RES ovarian
OVCAR-4 ovarian = test system: OVCAR-4 ovarian
OVCAR-5 ovarian = test system: OVCAR-5 ovarian
OVCAR-8 ovarian = test system: OVCAR-8 ovarian
PC-3 prostate = test system: PC-3 prostate
RPMI-8226 leukemia = test system: RPMI-8226 leukemia
RXF 393 renal = test system: RXF 393 renal
SF-268 CNS = test system: SF-268 CNS
SF-295 CNS = test system: SF-295 CNS
SF-539 CNS = test system: SF-539 CNS
SK-MEL-2 melanoma = test system: SK-MEL-2 melanoma
SK-MEL-28 melanoma = test system: SK-MEL-28 melanoma
SK-MEL-5 melanoma = test system: SK-MEL-5 melanoma
SK-OV-3 ovarian = test system: SK-OV-3 ovarian
SN12C renal = test system: SN12C renal
SNB-19 CNS = test system: SNB-19 CNS
SNB-75 CNS = test system: SNB-75 CNS
SR leukemia = test system: SR leukemia
SW-620 colon = test system: SW-620 colon
TK-10 renal = test system: TK-10 renal
U251 CNS = test system: U251 CNS
UACC-257 melanoma = test system: UACC-257 melanoma
UACC-62 melanoma = test system: UACC-62 melanoma
UO-31 renal = test system: UO-31 renal

CCc1ccc(SC2c3ccc(N(CC)CC)cc3Oc3nc(N)c(C#N)c(N)c32)cc1 (stereo not drawn)
GI50 (786-0 renal): 1.74 µM | TGI (786-0 renal): 3.17 µM | GI50 (A498 renal): 1.63 µM | TGI (A498 renal): 3.01 µM | GI50 (A549 NSCLC): 1.81 µM | TGI (A549 NSCLC): 3.32 µM | GI50 (ACHN renal): 1.67 µM | TGI (ACHN renal): 3.04 µM | GI50 (BT-549 breast): 1.3 µM | TGI (BT-549 breast): 2.59 µM | GI50 (CAKI-1 renal): 1.63 µM | TGI (CAKI-1 renal): 3 µM | GI50 (COLO 205 colon): 1.92 µM | TGI (COLO 205 colon): 3.51 µM | GI50 (DU-145 prostate): 1.86 µM | TGI (DU-145 prostate): 3.26 µM | GI50 (EKVX NSCLC): 0.71 µM | TGI (EKVX NSCLC): 2.07 µM | GI50 (HCC-2998 colon): 1.86 µM | TGI (HCC-2998 colon): 3.39 µM | GI50 (HCT-116 colon): 1.13 µM | TGI (HCT-116 colon): 2.49 µM | GI50 (HCT-15 colon): 1.62 µM | TGI (HCT-15 colon): 3.34 µM | GI50 (HL-60(TB) leukemia): 2.59 µM | TGI (HL-60(TB) leukemia): 8.34 µM | GI50 (HOP-62 NSCLC): 1.83 µM | TGI (HOP-62 NSCLC): 3.33 µM | GI50 (HOP-92 NSCLC): 1.48 µM | TGI (HOP-92 NSCLC): 2.84 µM | GI50 (HS 578T breast): 1.76 µM | TGI (HS 578T breast): 4.85 µM | GI50 (HT29 colon): 2.03 µM | TGI (HT29 colon): 3.76 µM | GI50 (IGROV1 ovarian): 1.44 µM | TGI (IGROV1 ovarian): 2.89 µM | GI50 (K-562 leukemia): 3.12 µM | TGI (K-562 leukemia): > 100 µM | GI50 (KM12 colon): 1.58 µM | TGI (KM12 colon): 3.03 µM | GI50 (LOX IMVI melanoma): 0.671 µM | TGI (LOX IMVI melanoma): 1.97 µM | GI50 (M14 melanoma): 1.45 µM | TGI (M14 melanoma): 2.83 µM | GI50 (MALME-3M melanoma): 1.75 µM | TGI (MALME-3M melanoma): 3.16 µM | GI50 (MDA-MB-231 breast): 1.63 µM | TGI (MDA-MB-231 breast): 3.04 µM | GI50 (MDA-MB-435): 1.68 µM | TGI (MDA-MB-435): 3.1 µM | GI50 (MOLT-4 leukemia): 2.19 µM | TGI (MOLT-4 leukemia): > 100 µM | GI50 (NCI-H226 lung): 2.01 µM | TGI (NCI-H226 lung): 4.52 µM | GI50 (NCI-H23 lung): 1.53 µM | TGI (NCI-H23 lung): 3.03 µM | GI50 (NCI-H460 lung): 1.84 µM | TGI (NCI-H460 lung): 3.55 µM | GI50 (NCI-H522 lung): 1.78 µM | TGI (NCI-H522 lung): 3.28 µM | GI50 (NCI/ADR-RES ovarian): 2.09 µM | TGI (NCI/ADR-RES ovarian): 4.96 µM | GI50 (OVCAR-4 ovarian): 1.7 µM | TGI (OVCAR-4 ovarian): 3.09 µM | GI50 (OVCAR-5 ovarian): 1.8 µM | TGI (OVCAR-5 ovarian): 3.24 µM | GI50 (OVCAR-8 ovarian): 1.71 µM | TGI (OVCAR-8 ovarian): 3.13 µM | GI50 (PC-3 prostate): 1.41 µM | TGI (PC-3 prostate): 2.9 µM | GI50 (RPMI-8226 leukemia): 2.18 µM | TGI (RPMI-8226 leukemia): 6.08 µM | GI50 (RXF 393 renal): 1.58 µM | TGI (RXF 393 renal): 2.96 µM | GI50 (SF-268 CNS): 1.76 µM | TGI (SF-268 CNS): 3.27 µM | GI50 (SF-295 CNS): 1.76 µM | TGI (SF-295 CNS): 3.2 µM | GI50 (SF-539 CNS): 1.66 µM | TGI (SF-539 CNS): 3.05 µM | GI50 (SK-MEL-2 melanoma): 1.74 µM | TGI (SK-MEL-2 melanoma): 3.17 µM | GI50 (SK-MEL-28 melanoma): 1.89 µM | TGI (SK-MEL-28 melanoma): 3.31 µM | GI50 (SK-MEL-5 melanoma): 1.77 µM | TGI (SK-MEL-5 melanoma): 3.17 µM | GI50 (SK-OV-3 ovarian): 1.89 µM | TGI (SK-OV-3 ovarian): 3.34 µM | GI50 (SN12C renal): 1.68 µM | TGI (SN12C renal): 3.13 µM | GI50 (SNB-19 CNS): 1.69 µM | TGI (SNB-19 CNS): 3.08 µM | GI50 (SNB-75 CNS): 1.5 µM | TGI (SNB-75 CNS): 2.83 µM | GI50 (SR leukemia): 0.482 µM | TGI (SR leukemia): > 100 µM | GI50 (SW-620 colon): 1.88 µM | TGI (SW-620 colon): 3.51 µM | GI50 (TK-10 renal): 2.75 µM | TGI (TK-10 renal): 4.26 µM | GI50 (U251 CNS): 1.44 µM | TGI (U251 CNS): 2.82 µM | GI50 (UACC-257 melanoma): 1.84 µM | TGI (UACC-257 melanoma): 3.28 µM | GI50 (UACC-62 melanoma): 1.7 µM | TGI (UACC-62 melanoma): 3.13 µM | GI50 (UO-31 renal): 1.45 µM | TGI (UO-31 renal): 2.76 µM
